Assay results taken from patent US6339064B1, “Benzylglycosylamides as inhibitors of smooth muscle cell proliferation” (American Home Products Corporation, priority 1998, dated 2002).

What was measured:
[1] = test system: Porcine Smooth Muscle Cell; experiment: Effects of compounds on cell proliferation using 3H thymidine incorporation (porcine smooth muscle cell antiproliferation); assay type: cell-based; conditions: for IC50: serum/growth factor stimulated cells, 24-36 h incubation; for Porcine Smooth Muscle Cell Antiproliferation, % at 50 μM: control (100%) = maximally stimulated cells
Method: Effects of Compounds on Cell Proliferation Using ^3H Thymidine Incorporation
Human and porcine smooth muscle cells were tested in early passage (generally passage 3-7) at sub-confluent conditions. Cultures were grown in 16 mm (24 well) multi-well culture dishes in medium 199 supplemented with 10% fetal bovine serum and 2% antibiotic/antimycotic. At sub-confluence, the cells were placed in a defined serum free medium (AIM-V; Gibco) for 24-48 h prior to initiating the experimental protocol.
Compounds were added to each well at 50 fold dilution (20 μL/well) and the plates were incubated for 24-36 h at 37° C. in 5% CO2. Compounds were initially dissolved in 50% ethanol and serially diluted into media. Compounds were routinely evaluated at concentrations from 1 to 100 μM. As a control, grade II porcine intestinal mucosal herapin (sodium salt) was routinely evaluated in all cell preparations at concentrations from 0.1 to 100 μg/mL.
At the completion of the test procedure, plates were placed on ice, washed three times with ice cold phosphate buffered saline (PBS) and incubated in ice cold 10% trichloroacetic acid (TCA) got 30 min to remove acid soluble proteins. Solution was transferred to scintillation vials containing 0.4 N HCl (500 μL/vial to neutralize NaOH) and each well was rinsed two times with water (500 μL) for a total volume of 2 mL/vial.
Data was obtained, in triplicate, for both control and experimental samples. Control (100%) data was obtained from maximally stimulated cells, as the result of growth factor or serum stimulation. Experimental data was obtained from cells maximally stimulated with growth factor or serum and treated with compound. Data are expressed as an IC50 in Table I below.

Compound	IC50 [1] [µM]	also measured
CC(=O)OC[C@H]1O[C@@H](NC(=O)c2ccc(Cl)c(N)c2)[C@H](OC(C)=O)[C@@H](OC(C)=O)[C@@H]1O[C@H]1O[C@H](COC(C)=O)[C@@H](OC(C)=O)[C@H](OC(C)=O)[C@H]1OC(C)=O [Example 2, 3-Amino-4-chloro-N-[2,3,6-tri-O-acetyl-4-O-(2,3,4,6-tetra-O-acetyl-α-D-glucopyranosyl)-β-D-glucopyranosyl}-benzamide]	–	IC50 ([1]; Sus scrofa): 11.1 µM; melting point: 115 to 119 °C
CC(=O)Nc1cc(C(=O)N[C@@H]2O[C@H](COC(C)=O)[C@@H](O[C@H]3O[C@H](COC(C)=O)[C@@H](OC(C)=O)[C@H](OC(C)=O)[C@H]3OC(C)=O)[C@H](OC(C)=O)[C@H]2OC(C)=O)ccc1Cl [Example 3, 3-(Acetylamino)-4-chloro-N-[2,3,6-tri-O-acetyl-4-O-(2,3,4,6-tetra-O-acetyl-α-D-glucopyranosyl)-β-D-glucopyranosyl}-benzamide]	–	IC50 ([1]; Sus scrofa): 54.3 µM; melting point: 122 to 124 °C
COc1cc(C(=O)N[C@@H]2O[C@H](COC(C)=O)[C@@H](O[C@H]3O[C@H](COC(C)=O)[C@@H](OC(C)=O)[C@H](OC(C)=O)[C@H]3OC(C)=O)[C@H](OC(C)=O)[C@H]2OC(C)=O)ccc1Cl [Example 22, 4-Chloro-3-methoxy-N-[2,3,6-tri-O-acetyl-4-O-(2,3,4,6-tetra-O-acetyl-α-D-glucopyranosyl)-β-D-glucopyranosyl]benzamide]	–	IC50 ([1]; Sus scrofa): 18.5 µM; melting point: 106 to 110 °C
CC(=O)OC[C@H]1O[C@@H](NC(=O)c2cccc(C(F)(F)F)c2)[C@H](OC(C)=O)[C@@H](OC(C)=O)[C@@H]1O[C@H]1O[C@H](COC(C)=O)[C@@H](OC(C)=O)[C@H](OC(C)=O)[C@H]1OC(C)=O [Example 38, N-(Hepta-O-acetyl-β-D-maltosyl)-3-(trifluoromethyl)-benzamide]	5.8	–
O=C(N[C@@H]1O[C@H](CO)[C@@H](O[C@H]2O[C@@H]3COC(c4ccccc4)O[C@H]3[C@H](O)[C@H]2O)[C@H](O)[C@H]1O)c1cccc(C(F)(F)F)c1 (stereo partly drawn) [Example 39, N-(4′,6′-O-Benzylidene-β-D-maltosyl)-3-(trifluoromethyl)-Benzamide]	–	Porcine Smooth Muscle Cell Antiproliferation, % at 50 μM [1]: 15% at 50
O=C(NC1OC(COC(=O)c2ccccc2)C(OC2OC3COC(c4ccccc4)OC3C(O)C2O)C(O)C1O)c1cccc(C(F)(F)F)c1 [Example 40, N-[{6-O-Benzoyl-4′,6′-O-benzylidene}-β-D-maltosyl]-3-(trifluoromethyl)-benzamide]	7.15	–
CC(=O)OC[C@H]1O[C@@H](NC(=O)c2ccc(C)nc2)[C@H](OC(C)=O)[C@@H](OC(C)=O)[C@@H]1O[C@H]1O[C@H](COC(C)=O)[C@@H](OC(C)=O)[C@H](OC(C)=O)[C@H]1OC(C)=O [Example 41, N-(Hepta-O-acetyl-β-D-maltosyl)-6-methylpyridine-3-carboxamide]	65.8	–
CCCCOc1c(Cl)cc(C(=O)N[C@@H]2O[C@H](CO)[C@@H](O[C@H]3O[C@H](CO)[C@@H](O)[C@H](O)[C@H]3O)[C@H](O)[C@H]2O)cc1Cl [Example 42, 4-Butoxy-3,5-dichloro-N-β-D-maltosyl-benzamide]	28.9	–
CCCCOc1c(Cl)cc(C(=O)NC2OC(CO)C(OC3OC4COC(c5ccccc5)OC4C(O)C3O)C(O)C2O)cc1Cl [Example 43, N-(4′,6′-O-Benzylidene-β-D-maltosyl)-4-butoxy-3,5-dichloro-benzamide]	44.5	–
COc1ccc(C(=O)N[C@@H]2O[C@H](COC(C)=O)[C@@H](O[C@H]3O[C@H](COC(C)=O)[C@@H](OC(C)=O)[C@H](OC(C)=O)[C@H]3OC(C)=O)[C@H](OC(C)=O)[C@H]2OC(C)=O)cc1Cl [Example 44, N-(Hepta-O-acetyl-β-D-maltosyl)-3-chloro-4-methoxy-benzamide]	5.4	–
COc1ccc(CC(=O)N[C@@H]2O[C@H](COC(C)=O)[C@@H](O[C@H]3O[C@H](COC(C)=O)[C@@H](OC(C)=O)[C@H](OC(C)=O)[C@H]3OC(C)=O)[C@H](OC(C)=O)[C@H]2OC(C)=O)cc1OC [Example 45, N-(2,2′,3,3′,4′,6,6′-hepta-O-acetyl-β-D-maltosyl)-1-(3,4-dimethoxy)-phenyl-acetamide]	16.6	–
COc1ccc(CC(=O)NC2OC(CO)C(OC3OC4COC(c5ccccc5)OC4C(O)C3O)C(O)C2O)cc1OC [Example 46, N-(4′,6′-Benzylidene-β-D-maltosyl)-2-(3,4-dimethoxy-phenyl)-acetamide]	–	Porcine Smooth Muscle Cell Antiproliferation, % at 50 μM [1]: 0% at 50
COc1ccc(CC(=O)NC2OC(COC(=O)c3ccccc3)C(OC3OC4COC(c5ccccc5)OC4C(O)C3O)C(O)C2O)cc1OC [Example 47, N-(6-O-Benzoyl-4′,6′-O-benzylidene-β-D-maltosyl)-2-(3,4-dimethoxy-phenyl)-acetamide]	8	–
CC(=O)OC[C@H]1O[C@@H](NC(=O)Cc2ccc(O)c([N+](=O)[O-])c2)[C@H](OC(C)=O)[C@@H](OC(C)=O)[C@@H]1O[C@H]1O[C@H](COC(C)=O)[C@@H](OC(C)=O)[C@H](OC(C)=O)[C@H]1OC(C)=O [Example 48, N-(Hepta-O-acetyl-β-D-maltosyl)-2-(4-hydroxy-3-nitro-phenyl)-acetamide]	–	Porcine Smooth Muscle Cell Antiproliferation, % at 50 μM [1]: 37% at 50
CCCCOc1c(Cl)cc(C(=O)N[C@@H]2O[C@H](COC(C)=O)[C@@H](O[C@H]3O[C@H](COC(C)=O)[C@@H](OC(C)=O)[C@H](OC(C)=O)[C@H]3OC(C)=O)[C@H](OC(C)=O)[C@H]2OC(C)=O)cc1Cl [Example 49, N-(2,2′,3,3′,4′,6,6′-Hepta-O-acetyl-β-D-maltosyl)-4-butoxy-3,5-dichloro-benzylamide]	12.6	–
CC(=O)OC[C@H]1O[C@@H](NC(=O)Cc2ccc(Cl)c([N+](=O)[O-])c2)[C@H](OC(C)=O)[C@@H](OC(C)=O)[C@@H]1O[C@H]1O[C@H](COC(C)=O)[C@@H](OC(C)=O)[C@H](OC(C)=O)[C@H]1OC(C)=O [Example 50, N-(2,2′,3,3′,4′,6,6′-hepta-O-acetyl-β-D-maltosyl)-2-(4-chloro-3-nitro-phenyl)-acetamide]	4.23	–
CC(=O)Nc1cc(CC(=O)N[C@@H]2O[C@H](COC(=O)c3ccccc3)[C@@H](O[C@H]3O[C@@H]4COC(c5ccccc5)O[C@H]4[C@H](O)[C@H]3O)[C@H](O)[C@H]2O)ccc1Cl (some centres unmarked) [Example 51]	0.916	–
